“Also recorded” adds a separate entry of the source. Counter-ions that a name gives are not always drawn.
Experiments:
[1] = system: female Sprague Dawley Rats injected with mono-iodoacetate to induce OA; assay: Paw withdrawal threshold with Electronic Von Frey in MIA induced OA rats (Examples 8-9); assay type: in vivo, rat
Protocol: This example was conducted to determine in-vivo pain response. […] Pain response was assessed using Von Frey filaments that measure mechanical allodynia. Paw withdrawal threshold was measured using Electronic Von Frey [IITC]. For example, female Sprague Dawley Rats were injected with 30 μL of mono-iodoacetate solution to induce OA. […] The results were compared to rodents with 2 injections of bupivacaine HCl in 0.9% saline (1.5 mg/ml) in those specific periarticular locations. […] FIG. 10 depicts electronic Von Frey measurements done with treatment groups using bupivacaine HCL periarticularly injected at 2 locations alone and periarticular injection of PEA nanoparticles with bupivacaine HCL at 2 locations.
This example was conducted to determine the effect of increasing the dosage of the local anesthetic as commonly 5 mg/mL bupivacaine is used clinically. […] For example, female Sprague Dawley Rats were injected with 30 μL of mono-iodoacetate solution (MIA) to induce OA.
Pain response was measured using Von Frey measurements. […] The PEA nanoparticles with high dose of bupivacaine HCL extended pain relief more than 4 weeks compared to a few hours in the high dose bupivacaine HCL alone group. […]

[2] = system: female Sprague Dawley Rats injected with mono-iodoacetate to induce OA; assay: Joint diameter (vernier caliper) as measure of joint inflammation in MIA induced OA rats; assay type: in vivo, rat; settings: periarticular, bupivacaine HCl 1.5 mg/ml, 50 μL/location
Protocol: This example was conducted to determine in-vivo inflammation. […] The joint inflammation is assessed via vernier caliper measurements. For example, female Sprague Dawley Rats were injected with 30 μL of mono-iodoacetate solution to induce OA. […] The injections were done under X-ray guidance using a C-arm for increased precision. Inflammation was assessed using a vernier caliper at the knee joint. […] Vernier caliper measurements show reduced inflammation in the bupivacaine+PEA nanoparticles group compared to the bupivacaine HCL only group at day 3 and day 7. At day 7, the inflammation in the bupivacaine+PEA nanoparticles group is not different from the baseline. At day 3, the inflammation in the bupivacaine HCl only group is higher than the MIA group. Statistical tests were conducted using only one way ANOVA with Brown Forsythe and Welsh tests.
FIG. 9 is a graph depicting joint diameter upto 21 days. […] The treatment groups are high does of bupivacaine HCl at 1 location (N=4), periarticular PEA nanoparticles at 2 locations +high does bupivacaine HCL at 1 location (N=5) with control of MIA (3 mg; N=6). The treatment groups with PEA nanoparticles show anti-inflammatory effects for 3 weeks. Statistical tests were conducted using only one way ANOVA with Brown Forsythe and Welsh tests.

MIA induced OA rats = assay: Paw withdrawal threshold with Von Frey filaments in MIA induced OA rats (Examples 1-2); assay type: in vivo, rat
Description: Von Frey data typically refers to experimental data collected using the von Frey filaments or hairs, which are instruments commonly used in neuroscience and behavioral research to assess mechanical sensitivity or tactile allodynia (an increased sensitivity to touch, often associated with pain or discomfort) in animals, particularly rodents. The von Frey test involves applying calibrated filaments of varying forces to the skin of an animal, usually the hind paw of a rodent. The animal's response is overserved to determine its sensitivity to mechanical stimuli. The data collected during von Frey testing may include a) Threshold Response: The force or bending pressure at which the animal first responds to the filament. This is often referred to as the “withdrawal threshold” and is an indicator of the animal's sensitivity to touch; b) Response Frequency: The number of positive responses (e.g., paw withdrawal, licking, or shaking) to the application of the von Frey filaments. This information provides a measure of the intensity or frequency of the animal's response to the mechanical stimulus; and c) Response Latency: The time it takes for the animal to respond after the application of the von Frey filament. A shorter response latency may indicate increased sensitivity.
The injections were 50 μL each and the Bupivacaine HCL (1.5 mg/mL) was dissolved in 0.9% saline. […] FIG. 1 depicts the locations in the knee where the periarticular injections of only bupivacaine were administered.
Periarticular injections of local anesthetics into these specific locations can prolong the duration of analgesia compared to intra-articular injections into the knee joint. […]
FIG. 3 is a graph that depicts the change from the baseline pre-injury values of the animals versus time in days. […] FIG. 3 depicts the paw withdrawal threshold as measured using Von Frey filaments. in MIA induced OA rats.

[3] = system: LPS activated macrophages; assay: Cytokine gene expression by RT-PCR in LPS activated bone marrow macrophages; assay type: cell-based; settings: PEA 50 μM in DMSO, LPS 200 ng/ml, 24 hours; versus LPS alone
Protocol: Bone marrow macrophages were cultured for 24 hours, followed by treatment with lipopolysaccharides (LPS) from Escherichia coli O111:B4 (to activate macrophages) and the endocannabinoid molecule, dissolved in dimethyl sulfoxide (DMSO). After 24 hours of treatment, the cells are lysed, and the RNA collected. Gene expression is determined using RT-PCR. The expression of inflammatory cytokines such as Tumor Necrosis Factor Alpha (TNF-α), Interleukin-1-Beta […] and Interleukin-6 are used to determine the anti-inflammatory effect of the endocannabinoid solution. For example, macrophages were cultured for 24 hours and treated with LPS (200 ng/ml) and PEA (50 μM). After 24 hours, cells were lysed, and the RNA collected.
Bone marrow macrophages are cultured for 24 hours, followed by treatment with lipopolysaccharides (to activate macrophages) and the endocannabinoid dissolved in DMSO or endocannabinoid nanoparticle formulation at the same concentration. 24 hours after treatment, the cells were lysed, and the RNA collected. Gene expression is determined using RT-PCR. The expression of inflammatory cytokines such as Tumor Necrosis Factor Alpha (TNF-α), and Interleukin-1-Beta (IL1β) is used to determine the anti-inflammatory effect of the endocannabinoid solution.

| Structure (SMILES) | duration of pain relief ([1]; bupivacaine 3 mg/ml, 50 μL at one location (superior lateral)) | hypoalgesic and analgesic efficacy on increasing the bupivacaine dose ([1]; bupivacaine increased from 1.5mg/ml to 3 mg/mL (0.15% to 0.3%), HCl) | joint diameter at day 3 [2] | duration of efficacy (analgesia) (MIA induced OA rats; intraarticular injection of same amount of bupivacaine HCL) | duration of efficacy (analgesia) (MIA induced OA rats; periarticular injection at 4 locations, 50 μL each, 1.5 mg/mL in 0.9% saline) | pain relief versus disease control (paw withdrawal threshold, change from baseline) (MIA induced OA rats; periarticular injections at 1, 2 or 4 locations) | gene expression of IL6 [3] | gene expression of ILβ [3] | gene expression of TNF-α [3] |
| --- | --- | --- | --- | --- | --- | --- | --- | --- | --- |
| CCCCN1CCCCC1C(=O)Nc1c(C)cccc1C (stereo not drawn) [bupivacaine HCL, bupivacaine HCl] | a few hours | significant reduction in the hypoalgesic and analgesic effect; also recorded: significantly reduced the efficacy | significantly increased joint diameter or inflammation compared to the injection of MIA alone | 3 days | 17 days | prolonged pain relief compared to the disease control | – | – | – |
| CCCCCCCCCCCCCCCC(=O)NCCO [PEA, palmitoylethanolamide] | – | – | – | – | – | – | significantly less than in the LPS alone control group | significantly less than in the LPS alone control group | significantly less than in the LPS alone control group |
